Laboratory results as given in ChEMBL document CHEMBL2021850, “Steroidal C-21 heteroaryl thioethers. Part 3: pregn-4-eno-[3,2-c]pyrazole fused A ring modified steroids as selective glucocorticoid receptor modulators (dissociated steroids)” (Bioorg Med Chem Lett, 2012).

Tests used:
Glucocorticoid receptor [1] = target: T1, Glucocorticoid receptor (Homo sapiens, UniProt P04150); experiment: Transrepression activity at glucocorticoid receptor in human H292 cells assessed as inhibition of TNF-induced IL8 production; type: cell-based
T1 sequence (P04150 whole entry): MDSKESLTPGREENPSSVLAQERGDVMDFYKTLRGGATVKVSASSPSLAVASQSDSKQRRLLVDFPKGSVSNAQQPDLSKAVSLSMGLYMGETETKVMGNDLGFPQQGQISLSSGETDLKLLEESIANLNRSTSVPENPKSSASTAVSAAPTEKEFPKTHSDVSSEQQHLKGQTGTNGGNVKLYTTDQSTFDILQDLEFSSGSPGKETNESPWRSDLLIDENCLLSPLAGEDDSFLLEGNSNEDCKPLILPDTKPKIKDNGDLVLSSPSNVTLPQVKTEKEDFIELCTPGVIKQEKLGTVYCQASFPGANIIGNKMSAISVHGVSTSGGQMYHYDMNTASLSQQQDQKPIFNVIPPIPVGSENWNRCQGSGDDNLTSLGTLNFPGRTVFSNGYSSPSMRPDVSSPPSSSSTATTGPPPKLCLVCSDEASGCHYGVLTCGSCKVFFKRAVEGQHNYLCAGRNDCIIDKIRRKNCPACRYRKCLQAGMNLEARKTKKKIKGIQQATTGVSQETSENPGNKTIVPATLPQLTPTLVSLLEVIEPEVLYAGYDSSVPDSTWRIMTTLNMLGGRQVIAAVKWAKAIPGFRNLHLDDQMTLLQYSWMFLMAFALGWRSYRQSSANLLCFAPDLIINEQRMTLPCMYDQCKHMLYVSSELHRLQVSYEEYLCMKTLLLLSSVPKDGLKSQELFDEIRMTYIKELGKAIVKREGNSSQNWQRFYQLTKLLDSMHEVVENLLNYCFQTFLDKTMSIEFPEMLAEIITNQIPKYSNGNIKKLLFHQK

Glucocorticoid receptor [2] = target: T2, Glucocorticoid receptor (Rattus norvegicus, UniProt P06536); experiment: Transactivation activity at glucocorticoid receptor in rat H4II-E cells assessed as induction of tyrosine aminotransferase; type: ADME, cell-based
T2 sequence (P06536 whole entry): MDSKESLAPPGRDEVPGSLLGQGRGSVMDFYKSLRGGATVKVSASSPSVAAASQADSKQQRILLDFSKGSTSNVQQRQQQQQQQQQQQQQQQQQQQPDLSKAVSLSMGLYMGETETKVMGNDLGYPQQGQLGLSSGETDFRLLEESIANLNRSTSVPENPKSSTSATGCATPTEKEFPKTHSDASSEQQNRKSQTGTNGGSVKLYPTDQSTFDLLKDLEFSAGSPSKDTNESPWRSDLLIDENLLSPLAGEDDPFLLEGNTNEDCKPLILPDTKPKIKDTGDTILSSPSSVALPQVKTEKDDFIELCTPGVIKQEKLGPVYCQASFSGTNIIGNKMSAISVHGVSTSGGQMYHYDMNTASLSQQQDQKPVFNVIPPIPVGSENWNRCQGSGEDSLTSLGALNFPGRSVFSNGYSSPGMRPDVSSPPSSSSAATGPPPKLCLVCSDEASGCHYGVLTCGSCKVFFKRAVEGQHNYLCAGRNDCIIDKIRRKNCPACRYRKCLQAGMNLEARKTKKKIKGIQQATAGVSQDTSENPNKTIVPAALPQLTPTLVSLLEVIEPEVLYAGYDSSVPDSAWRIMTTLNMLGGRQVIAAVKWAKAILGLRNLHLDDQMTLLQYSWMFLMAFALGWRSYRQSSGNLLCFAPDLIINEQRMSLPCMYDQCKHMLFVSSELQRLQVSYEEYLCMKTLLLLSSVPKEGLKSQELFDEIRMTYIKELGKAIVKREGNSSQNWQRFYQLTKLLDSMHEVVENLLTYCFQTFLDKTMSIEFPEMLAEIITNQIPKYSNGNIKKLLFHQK

[3] = Cmax in po dosed rat; type: ADME, organism-based; parameters: route oral; settings: in vivo
[4] = AUC in po dosed rat; type: ADME, organism-based; settings: plasma
Glucocorticoid receptor [5] = target: T1, Glucocorticoid receptor; experiment: Transactivation activity at glucocorticoid receptor in human HepG2 cells assessed as induction of tyrosine aminotransferase; type: ADME, cell-based
Glucocorticoid receptor [6] = target: T1, Glucocorticoid receptor; experiment: Transactivation activity at human glucocorticoid receptor in cells co-expressing GRE by luciferase reporter gene assay; settings: read-out: IC50 (the source's name)
Glucocorticoid receptor [7] = target: T1, Glucocorticoid receptor; experiment: Transactivation activity at human glucocorticoid receptor in cells co-expressing GRE by luciferase reporter gene assay relative to control; settings: read-out: Efficacy
Rattus norvegicus [8] = experiment: Transactivation activity in Brown Norway rat lung inflammation model assessed as thymolysis measuring decrease in thymus weight at 10 mg/kg, po for 3 days; type: organism-based; parameters: dose 10 mg/kg, route oral; scale not given: the % may be the effect or the level left; settings: in vivo, 72 h
Rattus norvegicus [9] = experiment: Antiinflammatory activity in Brown Norway rat lung inflammation model assessed as total cell inhibition at 10 mg/kg, po for 3 days; type: functional; settings: 72 h
Rattus norvegicus [10] = experiment: Antiinflammatory activity in Brown Norway rat lung inflammation model assessed as total cell inhibition at 2 mg/kg, it; type: functional; settings: route endotracheal
Glucocorticoid receptor [11] = target: T1, Glucocorticoid receptor; experiment: Inhibition of human glucocorticoid receptor

Compound: C[C@]12Cc3cnn(-c4ccccc4)c3C=C1CC[C@@H]1[C@@H]2[C@@H](O)C[C@@]2(C)[C@H]1CC[C@]2(O)C(=O)CO
- IC50 (Glucocorticoid receptor [1]): 0.00063 µM
- IC50 (Glucocorticoid receptor [2]): 0.00323 µM
- Cmax [3]: 628 ng/mL
- AUC [4]: 2480 ng·h/mL
- IC50 (Glucocorticoid receptor [5]): 0.143 µM

Compound: C[C@]12Cc3cnn(C4CCCCC4)c3C=C1CC[C@@H]1[C@@H]2[C@@H](O)C[C@@]2(C)[C@H]1CC[C@]2(O)C(=O)CO
- IC50 (Glucocorticoid receptor [1]): 0.00237 µM
- EC50 (Glucocorticoid receptor [6]): 0.00557 µM
- Emax (Glucocorticoid receptor [7]): 96%

Compound: Cn1c(SCC(=O)[C@@]2(O)CC[C@H]3[C@@H]4CCC5=Cc6c(cnn6-c6ccccc6)C[C@]5(C)[C@H]4[C@@H](O)C[C@@]32C)nc2ccccc21
- IC50 (Glucocorticoid receptor [1]): 0.0047 µM
- EC50 (Glucocorticoid receptor [6]): 0.0191 µM
- IC50 (Glucocorticoid receptor [2]): 0.078 µM
- IC50 (Glucocorticoid receptor [5]): 0.0667 µM
- Emax (Glucocorticoid receptor [7]): 64%

Compound: C[C@]12Cc3cnn(-c4ccccc4)c3C=C1CC[C@@H]1[C@@H]2[C@@H](O)C[C@@]2(C)[C@H]1CC[C@]2(O)C(=O)CSc1nc2ncccc2o1
- IC50 (Glucocorticoid receptor [1]): 0.00089 µM
- Activity (Rattus norvegicus [8]): 67%
- inhibition in vivo at 10 mg/kg (Rattus norvegicus [9]): 62%
- IC50 (Glucocorticoid receptor [2]): 0.0338 µM
- Cmax [3]: 467 ng/mL
- AUC [4]: 2030 ng·h/mL
- IC50 (Glucocorticoid receptor [5]): 0.0377 µM
- Emax (Glucocorticoid receptor [7]): 83%

Compound: C[C@]12Cc3cnn(-c4ccccc4)c3C=C1CC[C@@H]1[C@@H]2[C@@H](O)C[C@@]2(C)[C@H]1CC[C@]2(O)C(=O)CSc1ccccn1
- IC50 (Glucocorticoid receptor [1]): 0.0015 µM
- EC50 (Glucocorticoid receptor [6]): 0.0084 µM
- IC50 (Glucocorticoid receptor [2]): 0.225 µM
- IC50 (Glucocorticoid receptor [5]): 0.596 µM
- Emax (Glucocorticoid receptor [7]): 102%

Compound: C[C@]12Cc3cnn(C4CCCCC4)c3C=C1CC[C@@H]1[C@@H]2[C@@H](O)C[C@@]2(C)[C@H]1CC[C@]2(O)C(=O)CSc1ncccn1
- IC50 (Glucocorticoid receptor [1]): 0.0073 µM
- EC50 (Glucocorticoid receptor [6]): 0.137 µM
- IC50 (Glucocorticoid receptor [5]): 1 µM
- Emax (Glucocorticoid receptor [7]): 76%

Compound: C[C@]12Cc3cnn(-c4ccccc4)c3C=C1CC[C@@H]1[C@@H]2[C@@H](O)C[C@@]2(C)[C@H]1CC[C@]2(O)C(=O)CSc1ccc2ccccc2n1
- IC50 (Glucocorticoid receptor [1]): 0.0148 µM
- EC50 (Glucocorticoid receptor [6]): 0.101 µM
- IC50 (Glucocorticoid receptor [2]): 0.0823 µM
- IC50 (Glucocorticoid receptor [5]): 0.0601 µM
- Emax (Glucocorticoid receptor [7]): 69%

Compound: C[C@]12Cc3cnn(-c4ccc(F)cc4)c3C=C1CC[C@@H]1[C@@H]2[C@@H](O)C[C@@]2(C)[C@H]1CC[C@]2(O)C(=O)CO
- IC50 (Glucocorticoid receptor [1]): 0.0004 µM
- IC50 (Glucocorticoid receptor [2]): 0.0032 µM
- Cmax [3]: 240 ng/mL
- AUC [4]: 1040 ng·h/mL
- IC50 (Glucocorticoid receptor [5]): 0.0409 µM

Compound: C[C@]12Cc3cnn(-c4ccccc4)c3C=C1CC[C@@H]1[C@@H]2[C@@H](O)C[C@@]2(C)[C@H]1CC[C@]2(O)C(=O)CSc1cnc2ccccc2n1
- IC50 (Glucocorticoid receptor [1]): 0.00536 µM
- inhibition in vivo at 2 mg/kg (Rattus norvegicus [10]): 28%
- IC50 (Glucocorticoid receptor [2]): 0.113 µM
- Cmax [3]: 21 ng/mL
- AUC [4]: 64 ng·h/mL
- IC50 (Glucocorticoid receptor [5]): 0.226 µM
- Emax (Glucocorticoid receptor [7]): 68%

Compound: Cc1nc(SCC(=O)[C@@]2(O)CC[C@H]3[C@@H]4CCC5=Cc6c(cnn6C6CCCCC6)C[C@]5(C)[C@H]4[C@@H](O)C[C@@]32C)sc1C
- IC50 (Glucocorticoid receptor [1]): 0.0028 µM
- EC50 (Glucocorticoid receptor [6]): 0.0318 µM
- IC50 (Glucocorticoid receptor [2]): 0.135 µM
- IC50 (Glucocorticoid receptor [5]): 0.168 µM
- Emax (Glucocorticoid receptor [7]): 88%

Compound: C=CCn1c(SCC(=O)[C@@]2(O)CC[C@H]3[C@@H]4CCC5=Cc6c(cnn6-c6ccccc6)C[C@]5(C)[C@H]4[C@@H](O)C[C@@]32C)nc2ccccc21
- IC50 (Glucocorticoid receptor [1]): 0.00343 µM
- EC50 (Glucocorticoid receptor [6]): 0.0286 µM
- IC50 (Glucocorticoid receptor [2]): 0.258 µM
- IC50 (Glucocorticoid receptor [5]): 0.278 µM
- Emax (Glucocorticoid receptor [7]): 86%

Compound: C[C@]12Cc3cnn(-c4ccc(F)cc4)c3C=C1CC[C@@H]1[C@@H]2[C@@H](O)C[C@@]2(C)[C@H]1CC[C@]2(O)C(=O)CSc1cnc2ccccc2n1
- IC50 (Glucocorticoid receptor [1]): 0.00199 µM
- inhibition in vivo at 2 mg/kg (Rattus norvegicus [10]): 9%

Compound: C[C@]12Cc3cnn(-c4ccc(F)cc4)c3C=C1CC[C@@H]1[C@@H]2[C@@H](O)C[C@@]2(C)[C@H]1CC[C@]2(O)C(=O)CSc1nc2ncccc2o1
- IC50 (Glucocorticoid receptor [1]): 0.00032 µM
- Activity (Rattus norvegicus [8]): 70%
- inhibition in vivo at 10 mg/kg (Rattus norvegicus [9]): 48%
- IC50 (Glucocorticoid receptor [2]): 0.0133 µM
- Cmax [3]: 348 ng/mL
- AUC [4]: 1630 ng·h/mL
- IC50 (Glucocorticoid receptor [5]): 0.0386 µM

Compound: Cn1c(SCC(=O)[C@@]2(O)CC[C@@]3(C)[C@@H]4CCC5=CC(=O)CC[C@]5(C)[C@H]4[C@@H](O)C[C@@]32C)nc2ccccc21
- IC50 (Glucocorticoid receptor [1]): 0.0561 µM
- Activity (Rattus norvegicus [8]): 5%
- inhibition in vivo at 10 mg/kg (Rattus norvegicus [9]): 39%
- Cmax [3]: 115 ng/mL
- AUC [4]: 150 ng·h/mL
- Emax (Glucocorticoid receptor [7]): 8%
- IC50 (Glucocorticoid receptor [11]): 0.0089 µM

Compound: C[C@]12CCC(=O)C=C1CC[C@@H]1[C@@H]2[C@@H](O)C[C@@]2(C)[C@H]1CC[C@]2(O)C(=O)CSc1nc2ccccc2o1
- IC50 (Glucocorticoid receptor [1]): 0.0267 µM
- Emax (Glucocorticoid receptor [7]): 35%
- IC50 (Glucocorticoid receptor [11]): 0.0039 µM

Compound: Cc1nc(SCC(=O)[C@@]2(O)CC[C@H]3[C@@H]4CCC5=CC(=O)CC[C@]5(C)[C@H]4[C@@H](O)C[C@@]32C)sc1C
- IC50 (Glucocorticoid receptor [1]): 0.0219 µM
- Emax (Glucocorticoid receptor [7]): 57%
- IC50 (Glucocorticoid receptor [11]): 0.0043 µM

Compound: C[C@]12CCC(=O)C=C1CC[C@@H]1[C@@H]2[C@@H](O)C[C@@]2(C)[C@H]1CC[C@]2(O)C(=O)CSc1ccc2ccccc2n1
- IC50 (Glucocorticoid receptor [1]): 0.0893 µM
- Emax (Glucocorticoid receptor [7]): 0%
- IC50 (Glucocorticoid receptor [11]): 0.0066 µM

Compound: C[C@]12CCC(=O)C=C1CC[C@@H]1[C@@H]2[C@@H](O)C[C@@]2(C)[C@H]1CC[C@]2(O)C(=O)CSc1cnc2ccccc2n1
- IC50 (Glucocorticoid receptor [1]): 0.0221 µM
- Activity (Rattus norvegicus [8]): 0%
- inhibition in vivo at 10 mg/kg (Rattus norvegicus [9]): 39%
- Cmax [3]: 255 ng/mL
- AUC [4]: 274 ng·h/mL
- Emax (Glucocorticoid receptor [7]): 1%

Compound: C[C@]12CCC(=O)C=C1CC[C@@H]1[C@@H]2[C@@H](O)C[C@@]2(C)[C@H]1CC[C@]2(O)C(=O)CSc1nc2ncccc2s1
- IC50 (Glucocorticoid receptor [1]): 0.0591 µM
- Emax (Glucocorticoid receptor [7]): 16%
- IC50 (Glucocorticoid receptor [11]): 0.0047 µM

Compound: C[C@]12CCC(=O)C=C1CC[C@@H]1[C@@H]2[C@@H](O)C[C@@]2(C)[C@H]1CC[C@]2(O)C(=O)CSc1ccccn1
- IC50 (Glucocorticoid receptor [1]): 0.0238 µM
- Emax (Glucocorticoid receptor [7]): 14%
- IC50 (Glucocorticoid receptor [11]): 0.0149 µM

Compound: C[C@]12C=CC(=O)C=C1CC[C@@H]1[C@@H]2[C@@H](O)C[C@@]2(C)[C@H]1CC[C@]2(O)C(=O)CO [PREDNISOLONE]
- Activity (Rattus norvegicus [8]): 53%
- inhibition in vivo at 10 mg/kg (Rattus norvegicus [9]): 56%
- Cmax [3]: 682 ng/mL
- AUC [4]: 1250 ng·h/mL
